Measured values as given in patent US8470812B2, “Substituted benzo-pyrimido-tetrazolo-diazepine compounds” (ArQule, Inc., priority 2009, dated 2013).

Legend:
MDA-MB-231 cancer cells = test: MTS assay, cell growth inhibition; format: cell-based; conditions: MDA-MB-231 cells, 72 h incubation; test concentration not given
Procedure: (§1) Cells were maintained at 37° C., 5% CO2 in DMEM media supplemented with 1% fetal bovine serum, penicillin/streptomycin and fungizone (Invitrogen). Cells were seeded into 96-well tissue culture plates at 3000 per well and cultured at 37° C. for 18 hours. Test compounds were dissolved and diluted to 300× in DMSO then diluted 1:40 in DMEM. Cells were incubated with test compounds for 72 hours followed by incubation with tetrazolium compound (3-(4,5-dimethylthiazol-2-yl)-5-(3-carboxymethoxyphenyl)-2-(4-sulfophenyl)-2H-tetrazolium, inner salt; MTS) and the electron coupling reagent, phenazine methosulfate (PMS) for 4 hours. […] The ability of compounds to inhibit cell growth in this assay is correlated with the reduction of dehydrogenase enzyme activity found in metabolically active cells. The measurement of the absorbance of the formazan was assessed using a Victor (Perkin Elmer) microplate reader at 492 nm. The calculated IC50 value is the concentration of the test compound that causes a 50% decrease in the absorbance. Selected compounds have been tested in DLD-1 and MDA-MB-231 cancer cells.

DLD-1 cancer cells = test: MTS assay, cell growth inhibition; format: cell-based; conditions: DLD-1 cells, 72 h incubation; test concentration not given
Procedure: as §1

SMILES	MDA-MB-231, MTS, 72 h (% Inhibition) (MDA-MB-231 cancer cells) [%]	DLD-1, MTS, 72 h (% Inhibition) (DLD-1 cancer cells) [%]
Cc1ccc(CNc2ncc3c(n2)Nc2ccccc2-n2nnnc2-3)cc1 [Compound 73, N-(4-methylbenzyl)-9H-pyrimido[5,4-c]tetrazolo[1,5-a][1,5]benzodiazepin-11-amine]	39	
COc1ccccc1CCNc1ncc2c(n1)Nc1ccccc1-n1nnnc1-2 [Compound 69, N-[2-(2-methoxyphenyl)ethyl]-9H-pyrimido[5,4-c]tetrazolo[1,5-a][1,5]benzodiazepin-11-amine]		58
Clc1ccccc1CNc1ncc2c(n1)Nc1ccccc1-n1nnnc1-2 [Compound 48, N-(2-chlorobenzyl)-9H-pyrimido[5,4-c]tetrazolo[1,5-a][1,5]benzodiazepin-11-amine]	51	97
CC(CNc1ncc2c(n1)Nc1ccccc1-n1nnnc1-2)c1ccccc1 (stereo not shown) [Compound 44, N-(2-phenylpropyl)-9H-pyrimido[5,4-c]tetrazolo[1,5-a][1,5]benzodiazepin-11-amine]		51
CC(Nc1ncc2c(n1)Nc1ccccc1-n1nnnc1-2)c1ccc(Cl)cc1 (stereo not shown) [Compound 52, N-[1-(4-chlorophenyl)ethyl]-9H-pyrimido[5,4-c]tetrazolo[1,5-a][1,5]benzodiazepin-11-amine]	98	97
CC1CCCCC1Nc1ncc2c(n1)Nc1ccccc1-n1nnnc1-2 (stereo not shown) [Compound 97, N-(2-methylcyclohexyl)-9H-pyrimido[5,4-c]tetrazolo[1,5-a][1,5]benzodiazepin-11-amine]		39
Cc1ccc(CCNc2ncc3c(n2)Nc2ccccc2-n2nnnc2-3)cc1 [Compound 90, N-[2-(4-methylphenyl)ethyl]-9H-pyrimido[5,4-c]tetrazolo[1,5-a][1,5]benzodiazepin-11-amine]		61
COc1ccccc1CNc1ncc2c(n1)Nc1ccccc1-n1nnnc1-2 [Compound 50, N-(2-methoxybenzyl)-9H-pyrimido[5,4-c]tetrazolo[1,5-a][1,5]benzodiazepin-11-amine]		54
c1csc(CNc2ncc3c(n2)Nc2ccccc2-n2nnnc2-3)c1 [Compound 81, N-(thiophen-2-ylmethyl)-9H-pyrimido[5,4-c]tetrazolo[1,5-a][1,5]benzodiazepin-11-amine]		41
CC(Nc1ncc2c(n1)Nc1ccccc1-n1nnnc1-2)c1ccc(F)cc1 (stereo not shown) [Compound 33, N-[1-(4-fluorophenyl)ethyl]-9H-pyrimido[5,4-c]tetrazolo[1,5-a][1,5]benzodiazepin-11-amine]	42	82
c1ccc2c(c1)Nc1nc(NCCc3ccncc3)ncc1-c1nnnn1-2 [Compound 40, N-(2-pyridin-4-ylethyl)-9H-pyrimido[5,4-c]tetrazolo[1,5-a][1,5]benzodiazepin-11-amine]	65	98
CC(C)(C)OC(=O)N1CCN(c2ncc3c(n2)N(Cc2ccc(F)c(F)c2)c2ccccc2-n2nnnc2-3)CC1 [Compound 22, tert-butyl 4-[9-(3,4-difluorobenzyl)-9H-pyrimido[5,4-c]tetrazolo[1,5-a][1,5]benzodiazepin-11-yl]piperazine-1-carboxylate]	93	95
c1ccc(CC2CCN(c3ncc4c(n3)Nc3ccccc3-n3nnnc3-4)CC2)cc1 [Compound 105, 11-(4-benzylpiperidin-1-yl)-9H-pyrimido[5,4-c]tetrazolo[1,5-a][1,5]benzodiazepine]	56	
Fc1ccc(CN2c3ccccc3-n3nnnc3-c3cnc(N4CCOCC4)nc32)cc1F [Compound 13, 9-(3,4-difluorobenzyl)-11-morpholin-4-yl-9H-pyrimido[5,4-c]tetrazolo[1,5-a][1,5]benzodiazepine]	98	97
CC(Nc1ncc2c(n1)Nc1ccccc1-n1nnnc1-2)c1ccccc1 (stereo not shown) [Compound 51, N-(1-phenylethyl)-9H-pyrimido[5,4-c]tetrazolo[1,5-a][1,5]benzodiazepin-11-amine]	98	96
Fc1ccc(CN2c3ccccc3-n3nnnc3-c3cnc(NCc4ccncc4)nc32)cc1F [Compound 20, 9-(3,4-difluorobenzyl)-N-(pyridin-4-ylmethyl)-9H-pyrimido[5,4-c]tetrazolo[1,5-a][1,5]benzodiazepin-11-amine]	102	102
c1ccc(CNc2ncc3c(n2)Nc2ccccc2-n2nnnc2-3)nc1 [Compound 25, N-(pyridin-2-ylmethyl)-9H-pyrimido[5,4-c]tetrazolo[1,5-a][1,5]benzodiazepin-11-amine]	79	97

SMILES	MDA-MB-231, MTS, 72 h (% Inhibition) (MDA-MB-231 cancer cells) [%]	DLD-1, MTS, 72 h (% Inhibition) (DLD-1 cancer cells) [%]
COc1cc(CNc2ncc3c(n2)Nc2ccccc2-n2nnnc2-3)cc(OC)c1OC [Compound 72, N-(3,4,5-trimethoxybenzyl)-9H-pyrimido[5,4-c]tetrazolo[1,5-a][1,5]benzodiazepin-11-amine]	78	97
c1ccc(CCNc2ncc3c(n2)Nc2ccccc2-n2nnnc2-3)nc1 [Compound 98, N-(2-pyridin-2-ylethyl)-9H-pyrimido[5,4-c]tetrazolo[1,5-a][1,5]benzodiazepin-11-amine]	41	76
CCN1CCN(c2ncc3c(n2)Nc2ccccc2-n2nnnc2-3)CC1 [Compound 43, 11-(4-ethylpiperazin-1-yl)-9H-pyrimido[5,4-c]tetrazolo[1,5-a][1,5]benzodiazepine]	90	32
CN1CCC(Nc2ncc3c(n2)Nc2ccccc2-n2nnnc2-3)CC1 [Compound 66, N-(1-methylpiperidin-4-yl)-9H-pyrimido[5,4-c]tetrazolo[1,5-a][1,5]benzodiazepin-11-amine]		97
Fc1ccc(CCNc2ncc3c(n2)Nc2ccccc2-n2nnnc2-3)cc1 [Compound 74, N-[2-(4-fluorophenyl)ethyl]-9H-pyrimido[5,4-c]tetrazolo[1,5-a][1,5]benzodiazepin-11-amine]		78
Fc1ccc(CNc2ncc3c(n2)Nc2ccccc2-n2nnnc2-3)c(Cl)c1 [Compound 102, N-(2-chloro-4-fluorobenzyl)-9H-pyrimido[5,4-c]tetrazolo[1,5-a][1,5]benzodiazepin-11-amine]		84
c1ccc2c(c1)Nc1nc(NCCN3CCCC3)ncc1-c1nnnn1-2 [Compound 37, N-(2-pyrrolidin-1-ylethyl)-9H-pyrimido[5,4-c]tetrazolo[1,5-a][1,5]benzodiazepin-11-amine]		95
Clc1ccccc1CCNc1ncc2c(n1)Nc1ccccc1-n1nnnc1-2 [Compound 89, N-[2-(2-chlorophenyl)ethyl]-9H-pyrimido[5,4-c]tetrazolo[1,5-a][1,5]benzodiazepin-11-amine]		31
Cc1cccc(CNc2ncc3c(n2)Nc2ccccc2-n2nnnc2-3)c1 [Compound 83, N-(3-methylbenzyl)-9H-pyrimido[5,4-c]tetrazolo[1,5-a][1,5]benzodiazepin-11-amine]		89
Fc1cc(F)cc(CNc2ncc3c(n2)Nc2ccccc2-n2nnnc2-3)c1 [Compound 76, N-(3,5-difluorobenzyl)-9H-pyrimido[5,4-c]tetrazolo[1,5-a][1,5]benzodiazepin-11-amine]		73
Fc1ccc(CNc2ncc3c(n2)Nc2ccccc2-n2nnnc2-3)cc1F [Compound 36, N-(3,4-difluorobenzyl)-9H-pyrimido[5,4-c]tetrazolo[1,5-a][1,5]benzodiazepin-11-amine]		31
COc1cccc(CCNc2ncc3c(n2)Nc2ccccc2-n2nnnc2-3)c1 [Compound 84, N-[2-(3-methoxyphenyl)ethyl]-9H-pyrimido[5,4-c]tetrazolo[1,5-a][1,5]benzodiazepin-11-amine]		42
c1ccc2c(c1)Nc1nc(N3CCN(c4ccncc4)CC3)ncc1-c1nnnn1-2 [Compound 34, 11-(4-pyridin-4-ylpiperazin-1-yl)-9H-pyrimido[5,4-c]tetrazolo[1,5-a][1,5]benzodiazepine]		97
Cc1ccc(CNc2ncc3c(n2)Nc2ccccc2-n2nnnc2-3)cc1F [Compound 46, N-(3-fluoro-4-methylbenzyl)-9H-pyrimido[5,4-c]tetrazolo[1,5-a][1,5]benzodiazepin-11-amine]		69
CC(C)CN(C)c1ncc2c(n1)Nc1ccccc1-n1nnnc1-2 [Compound 47, N-methyl-N-(2-methylpropyl)-9H-pyrimido[5,4-c]tetrazolo[1,5-a][1,5]benzodiazepin-11-amine]		46
Fc1ccc(CNc2ncc3c(n2)Nc2ccccc2-n2nnnc2-3)cc1Cl [Compound 55, N-(3-chloro-4-fluorobenzyl)-9H-pyrimido[5,4-c]tetrazolo[1,5-a][1,5]benzodiazepin-11-amine]		45
c1ccc(CCNc2ncc3c(n2)Nc2ccccc2-n2nnnc2-3)cc1 [Compound 35, N-(2-phenylethyl)-9H-pyrimido[5,4-c]tetrazolo[1,5-a][1,5]benzodiazepin-11-amine]	42	
